Laboratory results as given in article PMC6681021 (Pharmaceutics, 2019).
Values joined by “and” are separate entries in the source; they are usually repeats but may differ in a detail not shown here. Equal entries are not always repeated. Where two headings read alike, the source gives them in different places.

What was measured:
[1] = Tissue distribution after intravenous administration in rats; type: in vivo; settings: Sprague-Dawley, rat; every tissue except brain, mesentery and fat; 30 min and 2 h after iv 10 mg/kg; read-out: Tissue-to-plasma (T/P) ratio
Protocol: Rats were handled and processed as described previously [10]. […] After 30 min and 2 h (n = 4 each), as much blood as possible was collected from the carotid artery. Blood samples were immediately centrifuged, and plasma was collected. The rats were sacrificed by cervical dislocation, approximately 1 g of each brain, fat, heart, kidney, large intestine, liver, lung, mesentery, muscle, small intestine, spleen, and stomach was removed, rinsed with phosphate-buffered solution (pH 7.4), and blotted dry with paper towels to remove any remaining blood. Each tissue sample was added to four volumes of homogenizing buffer, homogenized using a tissue homogenizer (T25 Ultra-Turrax, IKA Labortechnik, Staufen, Germany) and centrifuged at 8000 × g for 10 min.

[2] = Gastric and intestinal first-pass effect: intraportal infusion, intraduodenal and intragastric instillation in rats; type: in vivo, Sprague-Dawley rats
Protocol: Rats were fasted overnight with free access to water. Cannulae were inserted into the carotid artery and the cecal vein [13, 14]. […] All sample collection and processing procedures were identical to those described above.
(§1) Pharmacokinetic parameters, including AUC, apparent volume of distribution at steady state (Vss), mean residence time (MRT), and time-averaged total body (CL), renal (CLR), and nonrenal (CLNR) clearances, were calculated by noncompartmental analysis (WinNonlin, Pharsight Corporation, Mountain View, CA, USA) using standard methods. AUC values were calculated using the trapezoidal rule–extrapolation method. The peak plasma concentration (Cmax) and time to reach Cmax (Tmax) were obtained directly from the experimental data. The mean values of clearance, terminal half-life, and Vss were calculated using the harmonic mean method.

[3] = Pharmacokinetics after oral administration of tofacitinib to rats; type: in vivo, Sprague-Dawley rats; settings: for CL renal / Cmax / Tmax / bioavailability: male, Sprague-Dawley; for CL renal / Cmax / Tmax / bioavailability / AUC: rat; for CL renal: plasma and urine; for Cmax / Tmax / bioavailability / AUC: plasma; for bioavailability: dose-normalized oral AUC / AUC of 10 mg/kg iv, read-out: F (bioavailability); for Dose-normalized AUC: normalized to 10 mg/kg; for AUC: male Sprague-Dawley rats
Protocol: The pretreatment and surgical procedures for oral and intravenous administration were similar to those described previously. For oral administration, the rats were fasted overnight with free access to water. The rats were anesthetized with ketamine (200 mg/kg), and their carotid arteries were cannulated using polyethylene tubing (Clay Adams, Parsippany, NJ, USA) for blood sampling. For intravenous administration, the rats were anesthetized with ketamine (200 mg/kg), and their jugular veins and carotid arteries were cannulated for drug administration and blood sampling, respectively. Rats were allowed to recover for 4–5 h after surgical procedures. The rats were not restrained during the experimental period and had free access to water and food.
Blood samples (110–220 μL) were collected via the carotid artery at times 0 (prior to drug administration), 5, 15, 30, 45, 60, 90, 120, 180, 240, 360, 480, 600, and 720 min. Urine and gastrointestinal tract samples were also obtained over 24 h were processed as described above for the corresponding samples collected after intravenous administration.
Two microliters of hydrocortisone (5 mg/mL) and 40 μL of 20% ammonia solution were added to 100 μL aliquots of biological samples and vortex-mixed for 30 s using a vortex mixer. Each solution was extracted with 1.5 mL of ethyl acetate by centrifugation at 12,000 rpm for 5 min. The organic layer was collected and dried (Dry Thermobath, Eyela, Tokyo, Japan) under a gentle stream of nitrogen gas at 40 °C. The samples were reconstituted in 130 μL of 20% acetonitrile, and 50 μL of resuspended samples were analyzed by HPLC [12].
The mobile phase consisted of a 69.5:30.5 (v/v) mixture of 10 mM ammonium acetate buffer (pH 5.0) and acetonitrile, respectively, with a flow rate of 1.0 mL/min. Column effluent was monitored by a UV detector at 287 nm.
as §1

[4] = 30-min intraportal infusion, 10 mg/kg (n = 6)
[5] = Sprague-Dawley, rat, plasma, 10 mg/kg, 30-min intraportal infusion, 10 mg/kg (n = 6)
[6] = Sprague-Dawley, rat, plasma, 10 mg/kg, intraduodenal instillation
[7] = Sprague-Dawley, rat, plasma, po, 10 mg/kg, intragastric instillation
[8] = Sprague-Dawley, rat, plasma, 30-min intraportal infusion, 10 mg/kg (n = 6)

## C[C@@H]1CCN(C(=O)CC#N)C[C@@H]1N(C)c1ncnc2[nH]ccc12 [tofacitinib, 3-[(3R,4R)-4-methyl-3-[methyl-(7H-pyrrolo[2,3-day]pyrimidin-4-l)amino]piperidin-1-yl]-3-oxopropanenitril]
[1]
  Kp: > 1
[2]; 10 mg/kg
  AUC after intraduodenal instillation as % of that after intraportal administration: 50.7%
[2]; [4]
  Ae0–24 h: 5.82 ± 2.32 % of dose
  CLNR: 38.3 ± 6.16 mL/min/kg
[2]; 50.7–21.3%, 10 mg/kg
  Oral dose absorbed into the systemic circulation: 29.4%
[2]; [5]
  CL renal: 2.44 ± 1.23 mL/min/kg
  Cmax: 5180 ± 586 ng/mL
  Tmax: 27.5 min
[2]; Sprague-Dawley, rat, plasma, 10 mg/kg, 30-min intraportal infusion, 10 mg/kg (n = 6), fasted
  AUC: 4530 ng·h/mL
[2]; [6]
  AUC: 2300 ng·h/mL
  CL renal: 5.72 ± 2.62 mL/min/kg
  Cmax: 1550 ± 1930 ng/mL
  Tmax: 38.8 min
[2]; [7]
  AUC: 2230 ng·h/mL
  CL renal: 7.08 ± 2.91 mL/min/kg
  Cmax: 716 ± 255 ng/mL
  Tmax: 63.8 min
[2]; [8]
  MRT: 53 min
  clearance: 38.4 ± 8.47 mL/min/kg
[2]; Sprague-Dawley, rat, plasma, 30-min intraportal infusion, 10 mg/kg (n = 6), read-out: Terminal half-life
  half-life: 44.8 ± 14.2 min
[2]; Sprague-Dawley, rat, plasma, 30-min intraportal infusion, 10 mg/kg (n = 6), read-out: Vss
  Vd: 1.9 ± 0.369 L/kg
[2]; intraduodenal instillation, 10 mg/kg
  Ae0–24 h: 8.30 ± 5.10 % of dose
[2]; intragastric instillation, 10 mg/kg
  Ae0–24 h: 8.90 ± 3.00 % of dose
[3]; all four oral doses
  Time to detection in plasma after oral administration: ≤ 5 min
[3]; all oral doses
  Ae0–24 h: less than 17.2%
[3]; based on calculations using the same intravenous and oral doses
  F in rats: 29.1–33.8%
[3]; oral 10 mg/kg
  CL renal: 11.6 ± 2.87 mL/min/kg
  Cmax: 1130 ± 774 ng/mL
  Tmax: 15.7 min
  bioavailability: 29.1%
  Ae0–24 h: 11.3 ± 4.60 % of dose
  Orally administered dose absorbed from the gastrointestinal tract: approximately 96.8%
  Dose-normalized AUC: 99.4 µg·min/mL and 99.4 ± 35.5 µg·min/mL
  AUC: 1660 ng·h/mL
[3]; oral 20 mg/kg
  CL renal: 6.97 ± 3.95 mL/min/kg
  Cmax: 3130 ± 1270 ng/mL
  Tmax: 15.7 min
  bioavailability: 39.3%
  Ae0–24 h: 10.0 ± 6.51 % of dose
  GI24 h (recovered unchanged from entire gastrointestinal tract at 24 h): 3.13 ± 3.27 % of dose
  Dose-normalized AUC: 135 µg·min/mL and 135 ± 26.9 µg·min/mL
  AUC: 4480 ng·h/mL
[3]; oral 50 mg/kg
  CL renal: 7.61 ± 2.82 mL/min/kg
  Cmax: 5620 ± 2180 ng/mL
  Tmax: 34.4 min
  bioavailability: 69.7%
  Ae0–24 h: 17.2 ± 3.98 % of dose
  GI24 h (recovered unchanged from entire gastrointestinal tract at 24 h): 2.77 ± 3.96 % of dose
  Dose-normalized AUC: 238 µg·min/mL and 238 ± 56.0 µg·min/mL
  AUC: 19900 ng·h/mL
[3]; oral 100 mg/kg
  CL renal: 3.37 ± 2.52 mL/min/kg
  Cmax: 13100 ± 5480 ng/mL
  Tmax: 170 min
  bioavailability: 119%
  Ae0–24 h: 13.0± 9.47 % of dose
  GI24 h (recovered unchanged from entire gastrointestinal tract at 24 h): 0.772± 0.905 % of dose
  Dose-normalized AUC: 407 µg·min/mL and 407 ± 179 µg·min/mL
  AUC: 67900 ng·h/mL
[3]; oral 10 mg/kg, at 24 h
  Unabsorbed fraction (Funabs): 3.16%
[3]; oral 10 mg/kg, 10 mg/kg
  GI24 h (recovered unchanged from entire gastrointestinal tract at 24 h): 3.16 % of dose and 3.16 ± 5.12 % of dose
[3]; oral 10 mg/kg, 100% − (3.16% + 29.1%)
  Orally administered dose eliminated by first-pass metabolism: approximately 67.7%
[3]; oral, dose and AUC ratios based on 10 mg/kg
  Slope of plot of AUC versus dose: 4.65
